system: U-937; assay: Cytotoxicity against human U937 cells after 48 hrs by MTT assat; assay type: functional, cell-based; settings: U-937, 48 h

| Structure (SMILES) | IC50 [µM] |
| --- | --- |
| O=P1(c2ccccc2)C=CC(Br)C1 (configuration not stated) | > 1000 |
| CC1=CP(=O)(c2ccccc2)CC1(C)Br (configuration not stated) | 5.6 |
| CC1=CP(=O)(c2ccccc2)CC1 (configuration not stated) | 900 |
| CCC1=CP(=O)(c2ccccc2)CC1Br (configuration not stated) | > 1000 |
| CC1=CP(=O)(c2ccccc2)CC1C (configuration not stated) | 350 |
| CC1=CP(=O)(c2ccccc2)CC1Br (configuration not stated) | 87 |
| O=P1(c2ccccc2)C=CCC1 (configuration not stated) | > 1000 |
